# Measured values taken from patent US20190204402A1, “METHOD FOR POST-PROCESSING MRI IMAGES TO OBTAIN HEPATIC PERFUSION AND TRANSPORT PARAMETERS” (INSERM (INSTITUT NATIONAL DE LA SANTE DE LA RECHERCHE …, priority 2016, published 2019).
# Values joined by “and” are separate entries in the source; they are usually repeats but may differ in a detail not shown here. Equal entries are not always repeated.
# System: liver of patients with chronic liver diseases
# Assay: Dynamic gadoxetate-enhanced MR imaging with dual-input three-compartment pharmacokinetic model, patients with chronic liver diseases
# Assay type: in vivo, human
# Method: The feasibility of the method was evaluated in a prospective study with liver biopsy as a gold standard on patients with liver chronic liver diseases. The institutional ethics committee approved the protocol and informed consent was obtained from each subject. Twenty-one consecutive patients (4 women, 17 men; mean age, 51.0±10.2 years) who were suspected of having chronic liver disease on clinical and biological data underwent in the same period liver biopsy and MR imaging. Mean delay between MR imaging and liver biopsy was 2.5 days (range: 0-20 days). All subjects were fasting during six hours before MR imaging. Exclusion criteria were the usual contra-indications for MR imaging.
# Percutaneous liver biopsy was performed with a 1.4-mm-diameter needle (Hepafix; Braun, Melsungen, Germany). In 6 patients with ascites and/or trouble of blood crasis, liver biopsy was performed through a transjugular approach using a catheter needle with a diameter of 1.1 mm (Cook Bloomington, Ind., USA). The liver samples were fixed in buffered formalin and embedded in paraffin. Sections, 4 μm thick, were stained with hematoxylin-eosin and Masson trichrome and assessed by a pathologist blinded to the clinical data and to the results of MR imaging. The stage of fibrosis from F0 to F4 was evaluated semiquantitatively on Masson trichrome-stained slides according to the METAVIR staging system. For further analysis of fibrosis severity, a three-level staging of fibrosis was used (F0-F1: minimal fibrosis, F2-F3: intermediate fibrosis, and F4: cirrhosis). Moreover, patients with F≥2 were considered having significant fibrosis.
# MR imaging was performed on a Siemens Skyra 3.0 T system (Siemens Medical Solutions, Erlangen, Germany). […] The signal was collected with the 32-channel phased array body and the spine coils.
# Gadoxetate (Primovist, Bayer, Berlin, Germany) was injected intravenously using an automatic injector (Medrad Spectris Solaris, Warrendale, PA) with an injection rate of 1 mL·s^-1 and flushed with physiologic saline (same volume and injection rate). The gadoxetate dose was 0.025 mmol·kg^-1.
# Dynamic liver imaging was started simultaneously with the intravenous injection of gadoxetate and was performed in free breathing.
# To do this, pauses were added between dynamics as follow: for the 280 first dynamics: no pause, the effective temporal resolution was 2.1 s; for the next 150 dynamics: 5 s pause, the effective temporal resolution was 7.1 s, for the 60 last dynamics; 8 s pause, the effective temporal resolution was 10.1 s. Dynamic acquisition duration was close to 38 minutes.
# To simultaneously quantify hepatic micro-perfusion and function transport parameters, a model was developed. In the liver, the quantity of gadoxetate Q between τ and τ+dτ can be expressed as the difference between incoming Qin and outgoing gadoxetate quantities Qout. This means that:
# To express R(t) with kinetic indices kij, the liver is modeled with a model according to which the liver is a dual input three compartments. The three compartments are the extracellular compartment, the hepatocyte compartment and the intrahepatic bile ducts. The extracellular compartment comprises the intravascular compartment and the Disse space's.
# From the motion corrected dynamic frames, arterial and portal input were recorded with freehand regions of interest (ROI) drawn in the abdominal aorta and the portal vein respectively. Tissue response was measured from a ROI placed in the right hepatic lobe anterior segment (segments V-VIII) and the right lobe posterior segment (segments VI-VII), two large ROIs covering an extended region without visible large vessels were drawn on three central slices. For inputs function and tissue response, signal intensity was converted into relative gadoxetate concentration as follows:
# To convert blood concentration into plasma concentration, the input functions were normalized by one minus hematocrit. A hematocrit of 45% was assumed in this study. […]
# [1] = intermediate fibrosis (F2-F3), n = 8
# [2] = minimal fibrosis (F0-F1), n = 9
structure (smiles),measurement,setting,value
CCOc1ccc(C[C@@H](CN(CCN(CC(=O)[O-])CC(=O)[O-])CC(=O)[O-])N(CC(=O)[O-])CC(=O)[O-])cc1.[Gd+3].[H+].[H+] [gadoxetate],Biliary efflux,"cirrhosis (F4), n = 4",0.31±0.57 mL · min^−1 · 100 g^−1
same,E (hepatocyte uptake fraction),"cirrhosis (F4), n = 4",3.4±2.5%
same,MTT (extracellular mean transit time),"cirrhosis (F4), n = 4",30.1 ± 12.5 s and 29.7 ± 9.7 s
same,Sinusoidal backflux,"cirrhosis (F4), n = 4",0.0012±0.002 mL · min^−1 · 100 g^−1
same,Ve (extracellular volume),"cirrhosis (F4), n = 4",30.1 ± 12.5%
same,Biliary efflux,[1],1.5±0.5 mL · min^−1 · 100 g^−1
same,E (hepatocyte uptake fraction),[1],8.7±3.1%
same,MTT (extracellular mean transit time),[1],14.1 ± 3.9 s
same,Sinusoidal backflux,[1],0.021 ± 0.013 mL · min^−1 · 100 g^−1
same,Ve (extracellular volume),[1],21.8 ± 6.5%
same,Biliary efflux,[2],3.2±1.0 mL · min^−1 · 100 g^−1
same,E (hepatocyte uptake fraction),[2],12.0±3.8%
same,MTT (extracellular mean transit time),[2],15.0 ± 5.0 s
same,Sinusoidal backflux,[2],0.035±0.012 mL · min^−1 · 100 g^−1
same,Ve (extracellular volume),[2],20.8 ± 6.2%
same,"k3 (biliary efflux), parametric map","single F0 patient, FIG. 13",3.53 mL·min^-1·100 g^-1
same,"k3 (biliary efflux), parametric map","single F1 patient, FIG. 14",3.67 mL·min^-1·100 g^-1
same,"k3 (biliary efflux), parametric map","single F2 patient, FIG. 15",2.23 mL·min^-1·100 g^-1
same,"k3 (biliary efflux), parametric map","single F3 patient, FIG. 16",1.64 mL·min^-1·100 g^-1
